According to article PMC4503980 (Scientific Reports, 2015):

Assays:
[1] = target: T1, TAMRA-nNOS/PSD-95-PDZ1 interaction (Homo sapiens, UniProt P29475+P78352, V36C); experiment: 'direct' FP assay, TAMRA-nNOS / PDZ1 (saturation and inhibition); type: binding
T1 construct: nNOS-PDZ (12–130, human); PDZ1 (61-151); made in house; host or cells: E. coli
Experimental: The assay was established by creating a fluorescent version of nNOS-PDZ by TAMRA-labelling nNOS-PDZ via an introduced cysteine residue (V36C). […] However, up to 7.3 μM no inhibition of TAMRA-nNOS/PSD-95-PDZ interactions could be measured (data not shown).
(a) Saturation curves between TAMRA-nNOS (5 nM) and PDZ1, PDZ2, and PDZ1-2 of PSD-95. […] Error bars indicate SEM based on three individual measurements.
nNOS-PDZ (12–130, human) and α-Syntrophin-PDZ (82–200, human), both comprising an N-terminal His-tag/FXa-site sequence ([…]), were likewise expressed in E. coli and purified by HisTrap chromatography followed by gel-filtration as described in details previously. To make the TAMRA-labelled nNOS-PDZ, mutant nNOS-PDZ (V36C) protein was generated by standard site-directed mutagenesis and characterized as described previously. […]
Incubation time was 10–15 minutes (room temperature), and the assay was performed in a 1 × TBS buffer (150 mM NaCl, 10 mM Tris, pH 7.4) using black flat-bottom 384-well plates (Corning Life Sciences, NY) and a Safire2 plate-reader (Tecan, Männedorf, Switzerland). […] TAMRA- and Cy5-probes were measured at excitation/emission values of 530/585 nm (bandwidth = 20 nm) and 635/670 nm (bandwidth = 15 nm), respectively. […]

PSD-95/cypin-interaction = test system: PSD-95/cypin-interaction; set-up: method as in PMID 19732061; details: cited from earlier work
[2] = test system: 34 targets in a panel of receptors, ion channels, and transporters; set-up: method as in PMID 19732061; details: cited from earlier work
[3] = test system: NMDA-induced 3′,5′-cyclic guanosine monophosphate (cGMP) production; set-up: method as in PMID 19732061; details: hippocampal cultures; cited from earlier work
two mice pain models = test system: two mice pain models; set-up: method as in PMID 19732061; details: cited from earlier work
[4] = target: T2, nNOS-PDZ/PSD-95-PDZ2 interaction (Mus musculus, UniProt Q9Z0J4); experiment: ITC of nNOS-PDZ/PSD-95-PDZ2 interaction in the presence of compound; type: binding; details: 1 mM IC87201 present; significant interference, reduced reliability
T2 construct: nNOS-PDZ (residues 12–134, Uniprot Q9JJ30); PSD-95-PDZ2 (157–249, human); made in house
Experimental: Unlike the FP experiments above, which rely on inhibition of interaction partners, the ITC method is a direct measure of binding, regardless of where it takes place on the protein.
Figure 5 ITC curves. Plots showing titrations into PDZ domains fitted to a one-site model.
All ITC experiments were carried out at 25 °C on an iTC200 Microcalorimeter (GE Healthcare) with a 200 μL cell capacity and 40 μL syringe volume. The buffer used for all solutions was 20 mM phosphate buffer at pH 6.3; each experiment consisted of an initial injection of 0.5 μL, followed by fifteen 2.39 μL injections before a final injection of 1.89 μL. […] In both cases no heat exchange was detected, confirming that there was appropriate match of buffer conditions with no indication of dilution effects. […] For the nNOS-PDZ/PSD-95-PDZ2 interaction, 100 μM PDZ2 in the cell was titrated with 750 μM nNOS-PDZ. […] All data was analysed using the Origin®7 software programme.

nNOS [5] = test system: nNOS; set-up: method as in PMID 21102461; details: cited from earlier work
neurons = test system: neurons; set-up: method as in PMID 21102461; details: cited from earlier work
nNOS/CAPON = test system: nNOS/CAPON; set-up: method as in PMID 21102461; details: cited from earlier work
NMDA receptor = test system: NMDA receptor; set-up: method as in PMID 21102461; details: cited from earlier work
nNOS [6] = test system: nNOS; set-up: method as in PMID 21102461; details: cited from earlier work; remark: listed apart in the source
[7] = test system: NMDA receptor-mediated NO synthesis; set-up: method as in PMID 21102461; details: cited from earlier work
PSD-95/GluN2B = test system: PSD-95/GluN2B; set-up: method as in PMID 21102461; details: cited from earlier work

T2 sequence (Q9Z0J4 12-134): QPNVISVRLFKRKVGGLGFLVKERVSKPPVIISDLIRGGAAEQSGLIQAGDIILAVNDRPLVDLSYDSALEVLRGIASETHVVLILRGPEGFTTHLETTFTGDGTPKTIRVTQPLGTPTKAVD

inhibition of TAMRA-nNOS/PDZ1 interaction ([1]; up to 7.3 μM (fluorescence artefacts above), data not shown) | effect on affinity between nNOS-PDZ and PSD-95-PDZ2 (ITC) [4] | inhibition of TAMRA-nNOS/PDZ1 interaction ([1]; tested at up to 1200 μM, TAMRA-nNOS 5 nM, PDZ1 7.5 μM) | Structure (SMILES) | effect on PSD-95/cypin-interaction (PSD-95/cypin-interaction) | effect on 34 targets in a panel of receptors, ion channels, and transporters [2] | NMDA-induced cGMP production [3] | analgesic properties (two mice pain models) | effect on nNOS catalytic activity (nNOS [5]) | neuroprotective properties in neurons (neurons) | inhibition of nNOS/CAPON (nNOS/CAPON) | effect on NMDA receptor function (ion flux) (NMDA receptor) | effect on nNOS expression (nNOS [6]) | NMDA receptor-mediated NO synthesis [7] | inhibition of PSD-95/GluN2B (PSD-95/GluN2B)
no inhibition | appeared to be affected |  | Oc1c(Cl)cc(Cl)cc1CNc1ccc2[nH]nnc2c1 [IC87201, 2-((1H-Benzo[d][1–3]triazol-5-ylamino)methyl)-4-6-dichlorophenol] | did not affect | did not affect | blocked | analgesic properties |  |  |  |  |  |  | 
 |  | no activity | O=C(O)c1ccc(NCc2cc(Cl)cc(Cl)c2O)cc1O [ZL006, 4-((3,5-Dichloro-2-hydroxybenzyl)amino)-2-hydroxybenzoic acid] |  |  |  |  | did not affect | robust neuroprotective properties | not inhibited | did not affect | did not affect | inhibited | not inhibited
